Data on five compounds can be found in PMC11362529, “Exploring the neuroprotective potential of Nrf2-pathway activators against annonacin toxicity” (Scientific Reports, 2024).

Common to all, as to assay type: cell-based, human
For data set [1], the system named is LUHMES cells. Description: Mitochondrial membrane potential (JC-1 probe). As to conditions: CCCP 50 µM, positive control. The method, then:
In PLO/FN-coated 24-well microplates, cells were simultaneously incubated with 20 nM of annonacin and the selected concentrations of Nrf2-pathway activators, in glucose-reduced medium, over the course of 24 h. After that, the medium was removed and cells were washed once with warm HBSS, followed by incubation with 5 µM JC-1 solution in HBSS, for 20 min at 37 °C. For the positive control, the mitochondrial oxidative phosphorylation uncoupler, CCCP, was used at a concentration of 50 µM. After the incubation period, cells were washed with HBSS, and fresh HBSS was added to keep the cells viable during live-image acquisition. Image acquisition was done on a fluorescence microscope Leica-DFC9000GTC (Leica, Frankfurt, Germany). Environmental conditions were kept steady at 37 °C with a 5% CO2 atmosphere during the entire acquisition time. Ten to fifteen images from different fields of view, dispersed across triplicates, were acquired with 200 × magnification (20 × objective, 10 × intermediate magnification), using the same image acquisition parameters for all conditions. The fluorescence of JC-1 monomers was captured on the green channel (λ Ex/Em = 475/519 nm) and the fluorescence of JC-1 aggregates was capture on the red channel (λ Ex/Em = 555/594 nm). Quantification of FI (fluorescence intensities) of JC-1 monomeric and aggregated forms was done using the ImageJ software (http://rsb.info.nih.gov/ij/, ImageJ bundled with 64-bit Java 8). Briefly, TIFF exported images were submitted to background subtraction using the rolling ball method with a radius of 50 pixels. Channel-specific thresholds were applied to all images to define the ROI (region of interest) and FI were measured as integrated density. Data were reported as the ratio between JC-1 aggregates and monomers, obtained by dividing the FI of the JC-1 aggregated form by the FI of the monomeric form.

The test system of data set [2] is LUHMES cells. Description: Mitochondrial superoxide (MitoSOX / calcein AM). As to conditions: 100 µM H2O2, 2 h, positive control. Here is the method:
As before, cells seeded on PLO/FN-coated 24-well microplates were treated for 48 h with 20 nM of annonacin and the selected concentrations of Nrf2-pathway activators, in glucose-reduced medium. After this period, the medium was removed, and the cells were washed once with warm HBSS before being simultaneously incubated with 0.5 µM of MitoSOX™ red (Thermo Fisher Scientific) and 1 µM of calcein AM for 30 min at 37 °C. Next, the cells were again washed with HBSS and fresh HBSS was added to maintain cell viability during live-image acquisition on a fluorescence microscope Leica-DFC9000GTC (Leica). The cells were kept under controlled environmental conditions, and similar image acquisition parameters were used for all images, as explained before. We acquired ten to fifteen images per condition, from different view fields across triplicates, with a 200 × magnification (20 × objective, 10 × intermediate magnification). Quantification of MitoSOX and calcein AM FI was performed using the ImageJ software. Briefly, TIFF exported images were submitted to background subtraction using the rolling ball method with a radius of 50 pixels. Channel-specific thresholds were applied to all images to define the ROI, and the FI were measured as integrated density and reported as arbitrary units (a. u.). The MitoSOX FI was normalized to cell viability estimated by calcein AM FI, to obtain a MitoSOX FI/calcein FI ratio. The average ratio of the different view fields per experimental condition was taken and reported as fold change relative to the control (DMSO-treated) condition.

Data set [3] concerns LUHMES cells. The data set can be described thus: Protective effects against annonacin toxicity, calcein viability assay. As to conditions: with 20 nM annonacin, glucose-reduced medium, 48 h; 40 μM Ki 696–2, 1 μM HPP-D, 15 μM ezetimibe, 4 μM licochalcone A; most protective or highest non-toxic concentration for the others. Here is the method: The calcein AM green dye (Thermo Fisher Scientific) was diluted in DMSO to obtain a 1 mM stock solution. The stock solution was further diluted in HBSS (Hanks' balanced salt solution), immediately before incubation, to achieve a final working concentration of 1 μM in the well. The medium was removed, the cells were washed once with warm HBSS, and 200 µl of calcein working solution was added to each well. For background correction, 200 µl of calcein working solution was added to a well without cells (background control). After 30 min of incubation at 37 °C, the calcein solution was removed and the cells were washed once with HBSS. Cells were lysed in a 200 µl volume of 1% Triton™ X-100 in PBS (phosphate buffered saline) and the lysate transferred to a 96‐well black plate for the readout. The fluorescence signal was measured on a FLUOstar® Omega plate reader (BMG LabTech, Ortenberg, Germany) at λ Ex/Em = 485/530 nm and data was analyzed with the MARS data analysis software (BMG LabTech). For background correction, we subtracted the background control signal from the measured values of all experimental conditions. Data were expressed as percentage of viability relative to the control (DMSO-treated) condition.
For pharmacological treatments, we acquired several previously described Nrf2-pathway activators: ezetimibe (Cayman), licochalcone A (MedChem Express, New Jersey, NJ, USA), bardoxolone methyl, saracatinib and PP2 (AbMole BioScience Inc., Houston, TX, USA). The enantiomers Ki 696–1 and Ki 696–2, and the compound HPP-D were kindly provided by Orion Pharma (Espoo, Finland). All compounds were dissolved in DMSO and stored in small aliquots at -80 °C to avoid freeze–thaw cycles. Compound general toxicity was determined on PLO/FN double-coated 48-well microplates as follows: after 4 days of differentiation, LUHMES cells were incubated with the different Nrf2-pathway activators at concentrations ranging from 1 nM to 100 µM, for 96 h. The cell viability was assessed by calcein assay on day 8 of differentiation. Non-toxic concentrations of the Nrf2-pathway activators were selected and used in the pharmacological treatments, in combination with 20 nM of annonacin, in glucose-reduced differentiation medium, over a period of 48 h, similar to an in vitro model reported before. The protective effects of Nrf2-pathway activators against annonacin toxicity were determined in terms of cell viability with the calcein assay.

Data set [4] concerns LUHMES cells. The data set can be described thus: Compound general toxicity, calcein viability assay. As to conditions: 1 nM to 100 μM, 96 h, differentiation medium, calcein fluorescence. The method, then: We used LUHMES (lund human mesencephalic) cells derived from human embryonic ventral mesencephalic cells by conditional immortalization (Tet-off v-myc overexpression). Cells were grown in monolayer at 37 °C in a humidified atmosphere of 5% CO2, in 75 cm^2 tissue culture flasks coated with 0.05 µg/ml PLO (poly-L-ornithine). Cells were maintained in growth medium of DMEM/F12 (Sigma-Aldrich, St. Louis, MO, USA), supplemented with 1% N-2 supplement (Gibco, Thermo Fisher Scientific, Waltham, MA, USA) and 0.04 µg/ml basic fibroblast growth factor (PreproTech EC, Waltham, MA, USA), and routinely dissociated with trypsin–EDTA solution and subcultured when reaching 70% confluence to avoid overgrowth. […]
The calcein AM green dye (Thermo Fisher Scientific) was diluted in DMSO to obtain a 1 mM stock solution. […] Cells were lysed in a 200 µl volume of 1% Triton™ X-100 in PBS (phosphate buffered saline) and the lysate transferred to a 96‐well black plate for the readout. The fluorescence signal was measured on a FLUOstar® Omega plate reader (BMG LabTech, Ortenberg, Germany) at λ Ex/Em = 485/530 nm and data was analyzed with the MARS data analysis software (BMG LabTech). For background correction, we subtracted the background control signal from the measured values of all experimental conditions. Data were expressed as percentage of viability relative to the control (DMSO-treated) condition. […]

On to `N#CC(C#N)=NNc1cccc(Cl)c1` [CCCP], for which, in the data set with LUHMES cells [1], the “mitochondrial membrane potential (JC-1 aggregates)” value is listed as “drastically reduced the presence of JC-1 aggregates”. Regarding `OO` [H2O2], the MitoSOX fluorescence intensity entry in the data set on LUHMES cells [2] is “increased the MitoSOX fluorescence intensity”.

In the case of `CC(C)(C)n1nc(-c2ccc(Cl)cc2)c2c(N)ncnc21` [PP2], the “reduction of annonacin toxicity” value in the data set with LUHMES cells [3] was “no statistical differences”. Take `COC(=O)[C@]12CCC(C)(C)C[C@H]1[C@H]1C(=O)C=C3[C@@]4(C)C=C(C#N)C(=O)C(C)(C)[C@@H]4CC[C@@]3(C)[C@]1(C)CC2` [bardoxolone, bardoxolone methyl]: in the data set with LUHMES cells [4], the “impact on viability of differentiated LUHMES neuronal cells (compound toxicity)” value is on record as “extremely neurotoxic at concentrations above the nanomolar range”. Take `CN1CCN(CCOc2cc(OC3CCOCC3)c3c(Nc4c(Cl)ccc5c4OCO5)ncnc3c2)CC1` [saracatinib]: the “reduction of annonacin toxicity” value in the data set with LUHMES cells [3] is reported as “no statistical differences”.
